Results: patent US8846704B2, “Thiopyrimidine-based compounds and uses thereof” (YM Biosciences Austraila Pty Ltd, priority 2007, dated 2014)

How the values were obtained:
BaF3 wild-type cells = experiment: Cellular screening, BaF3 wild-type cells, Alamar Blue; format: cell-based; settings: Mus musculus, 40 hr, read-out: BAF3wt IC50_nM
How it was run: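 Cells were cultured in DMEM with 10% FCS and 10% WEHI 3B conditioned medium, and suspensions were prepared at 1.1× final (50,000–200,000 cells/mL). Compounds from 20 μM dilution plates were added at 10× final and incubated for 40 hr at 37° C, 5% CO2. Alamar Blue was then added for 4–6 hours and read at 544 nm.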

CTLL2 = experiment: Cellular screening, CTLL2 cells, Alamar Blue; format: cell-based; settings: Mus musculus, CTLL-2, read-out: CTLL2 IC50_nM
How it was run: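 CTLL2 cells in late log phase incubated with compound for 40 hr at 37° C, 5% CO2. Viability then read at 544 nm after a further 4-6 hours with Alamar Blue.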

human JAK2 = biological target: T1, human JAK2 (Homo sapiens, UniProt O60674); experiment: Alphascreen tyrosine kinase enzyme assay, JAK2 kinase domain; format: biochemical; settings: read-out: JAK2 IC50_nM
T1 construct: The kinase domain of human JAK2 was amplified; GST (N); made in house; host or cells: Sf9 insect cells (baculovirus)
How it was run: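 JAK2 kinase domain expressed in baculovirus/Sf9 and glutathione-affinity purified. Compounds (final […]) pre-incubated 20 min with enzyme in 10 mM HEPES pH 7.5, MgCl2, NaCl, vanadate, 0.1% Tween 20.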

human JAK3 = biological target: T2, human JAK3 (Homo sapiens, UniProt P52333); experiment: Alphascreen tyrosine kinase enzyme assay, JAK3 kinase domain; format: biochemical; settings: read-out: JAK3 IC50_nM
T2 construct: The kinase domain of human JAK3 was amplified; GST (N); made in house; host or cells: Sf9 insect cells (baculovirus)
How it was run: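 GST-affinity-purified human JAK3 kinase domain (baculovirus/Sf9) was pre-incubated 20 min with compound ([…]) in HEPES pH 7.5 buffer with MgCl2, vanadate and Tween 20. Biotinylated peptide substrate ([…]) and ATP were then added; phosphotyrosine was detected by AlphaScreen PY100 acceptor and streptavidin donor beads after 2–3 h.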

[1] = biological target: T3, BaF3 TELJAK2 cells (BafT_J2) (Homo sapiens, UniProt O60674); experiment: Cellular screening, BaF3 TEL:JAK2 cells, Alamar Blue; format: cell-based; settings: 40 hr, read-out: BafT_J2 IC50_nM
T3 construct: fused on or other part: TEL (ETV6) N-terminal part, coding nucleotides 1-487, serves as the oligomerising partner; It is fused through a Sal I site to the JAK2 kinase domain and expressed from pTRE2 in BaF3 cells bearing pTET-off; P41212 (Transcription factor ETV6)
How it was run: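 Tet-off BaF3 cells carrying a TEL (nt 1-487)–JAK2 kinase-domain fusion, grown factor-independently in DMEM with 10% Tet-approved FBS without WEHI 3B medium. Compounds were diluted to 20 μM in screening plates, and cells (50,000–200,000 cell/mL at 1.1×) were incubated 40 hr at 37 °C, 5% CO2. Alamar Blue was then added for 4-6 hours; read at 544 nm.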

T1 sequence (O60674 849-1124 limits assumed): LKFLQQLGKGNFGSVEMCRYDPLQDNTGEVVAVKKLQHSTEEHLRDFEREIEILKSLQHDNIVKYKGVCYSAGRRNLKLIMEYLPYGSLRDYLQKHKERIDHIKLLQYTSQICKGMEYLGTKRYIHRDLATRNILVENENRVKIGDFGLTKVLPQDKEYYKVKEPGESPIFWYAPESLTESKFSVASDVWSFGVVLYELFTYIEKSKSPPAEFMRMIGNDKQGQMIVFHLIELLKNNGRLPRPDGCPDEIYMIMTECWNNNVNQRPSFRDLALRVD
T3 sequence (O60674 whole entry, change not shown, the tested form may be a part): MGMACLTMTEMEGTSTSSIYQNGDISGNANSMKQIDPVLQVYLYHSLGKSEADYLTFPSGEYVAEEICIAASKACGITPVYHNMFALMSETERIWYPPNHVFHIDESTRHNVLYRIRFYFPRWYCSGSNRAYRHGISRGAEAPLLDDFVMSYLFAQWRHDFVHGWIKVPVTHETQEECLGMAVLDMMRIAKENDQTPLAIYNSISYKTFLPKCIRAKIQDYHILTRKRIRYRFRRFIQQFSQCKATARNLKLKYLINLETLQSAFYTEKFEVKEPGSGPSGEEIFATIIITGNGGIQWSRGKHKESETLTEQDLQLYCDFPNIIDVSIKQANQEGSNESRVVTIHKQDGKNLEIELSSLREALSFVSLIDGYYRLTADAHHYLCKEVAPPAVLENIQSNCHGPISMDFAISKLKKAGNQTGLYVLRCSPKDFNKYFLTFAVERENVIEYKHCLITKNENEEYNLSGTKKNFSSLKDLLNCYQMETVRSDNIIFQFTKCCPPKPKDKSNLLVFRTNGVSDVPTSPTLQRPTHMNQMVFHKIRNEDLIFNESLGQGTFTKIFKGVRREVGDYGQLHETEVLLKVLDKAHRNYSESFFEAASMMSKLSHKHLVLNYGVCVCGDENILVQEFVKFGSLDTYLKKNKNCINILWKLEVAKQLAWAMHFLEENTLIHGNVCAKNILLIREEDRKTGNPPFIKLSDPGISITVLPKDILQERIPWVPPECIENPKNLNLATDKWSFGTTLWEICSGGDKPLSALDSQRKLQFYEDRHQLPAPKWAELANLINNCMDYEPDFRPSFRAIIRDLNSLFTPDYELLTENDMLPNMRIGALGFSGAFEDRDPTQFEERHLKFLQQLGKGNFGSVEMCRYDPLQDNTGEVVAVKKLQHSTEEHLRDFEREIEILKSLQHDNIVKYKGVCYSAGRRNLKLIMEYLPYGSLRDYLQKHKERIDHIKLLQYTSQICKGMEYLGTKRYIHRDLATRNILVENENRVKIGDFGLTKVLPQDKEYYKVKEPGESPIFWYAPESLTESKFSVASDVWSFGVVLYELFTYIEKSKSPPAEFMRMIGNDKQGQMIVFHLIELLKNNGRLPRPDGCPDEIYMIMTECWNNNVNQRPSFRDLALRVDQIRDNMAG
T2 sequence (P52333 822-1111 limits assumed): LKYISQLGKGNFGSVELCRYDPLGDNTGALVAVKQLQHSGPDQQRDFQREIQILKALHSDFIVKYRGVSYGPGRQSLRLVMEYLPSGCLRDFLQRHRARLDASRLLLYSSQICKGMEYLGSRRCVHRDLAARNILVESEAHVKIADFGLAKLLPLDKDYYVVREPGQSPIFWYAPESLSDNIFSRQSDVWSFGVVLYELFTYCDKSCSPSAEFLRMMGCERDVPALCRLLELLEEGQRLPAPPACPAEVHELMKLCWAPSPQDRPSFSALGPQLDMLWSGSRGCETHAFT

SMILES	IC50 (BaF3 wild-type cells) [µM]	IC50 (CTLL2) [µM]	IC50 (human JAK2) [µM]	IC50 (human JAK3) [µM]	GI50 [1] [µM]
C=CC(=O)Nc1ccc(Sc2nc(Nc3ccc(N4CCOCC4)cc3)ncc2I)cc1 [Compound 313, N-(4-(5-iodo-2-(4-morpholinophenylao)pyrimidin-4-ylthio)phenyl)acrylamide]	> 20	< 5	> 1	< 0.1	> 20
C=CC(=O)Nc1ccc(Sc2nc(Nc3ccc(N4CCC(C(=O)OCC)CC4)cc3)ncc2C)cc1 [Compound 292, ethyl 1-(4-(4-(4-acrylamidophenylthio)-5-methylpyrimidin-2-ylao)phenyl)piperidine-4-carboxylate]	> 20	< 5	> 1	< 0.1	> 20
CC(=O)Nc1ccc(Sc2ccnc(Nc3ccc(N4CCC(N5CCCC5)CC4)cc3)n2)cc1 [Compound 86, N-(4-(2-(4-(4-(pyrrolidin-1-yl)piperidin-1-yl)phenylao)pyrimidin-4-ylthio)phenyl)acetamide]	< 5	< 5	> 1	< 0.5	< 20
Cc1cnc(Nc2ccc(N3CCOCC3)cc2)nc1Sc1ccc(NC(=O)CCC(=O)O)cc1 [Compound 383, 4-(4-(5-methyl-2-(4-morpholinophenylao)pyrimidin-4-ylthio)phenylao)-4-oxobutanoic acid]	< 20	< 20	< 0.5	< 0.1	< 20
C=CC(=O)Nc1ccc(Sc2ccnc(Nc3cccc(S(=O)(=O)N4CCOCC4)c3)n2)cc1 [Compound 372, N-(4-(2-(3-(morpholinosulfonyl)phenylao)pyrimidin-4-ylthio)phenyl)acrylamide]	< 5	< 5	> 1	< 0.1	< 5
C=CC(=O)Nc1ccc(Sc2ccnc(Nc3ccc(OC)c(O)c3)n2)cc1 [Compound 97]	< 20	< 1	> 1	< 0.1	< 5
COC(=O)COCC(=O)Nc1ccc(Sc2nc(Nc3ccc(N4CCOCC4)cc3)ncc2C)cc1 [Compound 189, methyl 2-(2-(4-(5-methyl-2-(4-morpholinophenylao)pyrimidin-4-ylthio)phenylao)-2-oxoethoxy)acetate]	< 20	> 20	> 1	< 0.5	< 20
C=CC(=O)Nc1ccc(Sc2nc(Nc3cccc(OCCCO)c3)ncc2C)cc1 [Compound 301, N-(4-(2-(3-(3-hydroxypropoxy)phenylao)-5-methylpyrimidin-4-ylthio)phenyl)acrylamide]	< 20	< 1	> 1	< 0.1	< 20
C=CC(=O)Nc1ccc(Sc2ccnc(Nc3cccc(C#N)c3)n2)cc1 [Compound 118, N-(4-(2-(3-cyanophenylao)pyrimidin-4-ylthio)phenyl)acrylamide]	> 20	> 20	> 1	< 0.1	< 5
C=CC(=O)Nc1ccc(Sc2nc(Nc3ccc4c(c3)OCO4)ncc2C)cc1 [Compound 284, N-(4-(2-(benzo[d][1,3]dioxol-5-ylao)-5-methylpyrimidin-4-ylthio)phenyl)acrylamide]	< 20	< 1	> 1	< 0.1	< 20
C=CC(=O)Nc1cc(C)c(Sc2nc(Nc3ccc(N4CCOCC4)cc3)ncc2C)c(C)c1 [Compound 164, N-(3,5-dimethyl-4-(5-methyl-2-(4-morpholinophenylao)pyrimidin-4-ylthio)phenyl)acrylamide]	> 20	< 1	> 1	< 0.1	< 20
C=CC(=O)Nc1ccc(Sc2ccnc(Nc3ccc(OC)cc3)n2)cc1 [Compound 74, N-(4-(2-(4-methoxyphenylao)pyrimidin-4-ylthio)phenyl)acrylamide]	> 20	< 5	> 1	< 0.1	> 20
C=CC(=O)Nc1ccc(Sc2ccnc(Nc3cccc(OC)c3)n2)cc1 [Compound 105, N-(4-(2-(3-methoxyphenylao)pyrimidin-4-ylthio)phenyl)acrylamide]	> 20	< 20	> 1	< 0.1	< 20
C=CC(=O)Nc1ccc(Sc2ccnc(Nc3ccc(F)c(C#N)c3)n2)cc1 [Compound 354, N-(4-(2-(3-cyano-4-fluorophenylao)pyrimidin-4-ylthio)phenyl)acrylamide]	< 20	< 20	> 1	< 0.1	< 20
CCC(=O)Nc1ccc(Sc2nc(Nc3ccc(N4CCOCC4)cc3)ncc2Cl)cc1 [Compound 347, N-(4-(5-chloro-2-(4-morpholinophenylao)pyrimidin-4-ylthio)phenyl)propionamide]	> 20	< 5	> 1	< 0.1	> 20
C=CC(=O)Nc1ccc(Sc2ccnc(Nc3ccc4c(c3)OCO4)n2)cc1 [Compound 393, N-(4-(2-(benzo[d][1,3]dioxol-5-ylao)pyrimidin-4-ylthio)phenyl)acrylamide]	> 20	< 5	> 1	< 0.1	< 20
C=CC(=O)Nc1ccc(Sc2ccnc(Nc3cccc(S(N)(=O)=O)c3)n2)cc1 [Compound 364, N-(4-(2-(3-sulfamoylphenylao)pyrimidin-4-ylthio)phenyl)acrylamide]	< 20	< 1	> 1	< 0.1	< 5
Nc1ccc(Sc2nc(Nc3ccc(N4CCOCC4)cc3)ncc2Cl)cc1 [Compound 318, 4-(4-aophenylthio)-5-chloro-N-(4-morpholinophenyl)pyrimidin-2-ae]	< 20	< 20	> 1	< 0.1	> 20
Nc1ccc(Sc2nc(Nc3ccc(N4CCOCC4)cc3)ncc2I)cc1 [Compound 309, 4-(4-aophenylthio)-5-iodo-N-(4-morpholinophenyl)pyrimidin-2-ae]	< 5	< 1	> 1	< 0.5	< 5
C=CC(=O)Nc1ccc(Sc2nc(Nc3ccc(N4CCS(=O)(=O)CC4)cc3)ncc2C)cc1 [Compound 298, N-{4-[(2-{[4-(1,1-dioxo-1λ^6,4-thiomorpholin-4-yl)phenyl]ao}-5-methylpyrimidin-4-yl)sulfanyl]phenyl}prop-2-enamide]	< 20	< 1	> 1	< 0.1	< 20
C=CC(=O)Nc1ccc(Sc2ccnc(Nc3ccc(N4CCC(N5CCCC5)CC4)cc3)n2)cc1 [Compound 87, N-(4-(2-(4-(4-(pyrrolidin-1-yl)piperidin-1-yl)phenylao)pyrimidin-4-ylthio)phenyl)acrylamide]	< 5	< 1	> 1	< 0.1	< 5
C=CC(=O)Nc1ccc(Sc2ccnc(Nc3cccc([N+](=O)[O-])c3)n2)cc1 [Compound 361, N-(4-(2-(3-nitrophenylao)pyrimidin-4-ylthio)phenyl)acrylamide]	> 20	> 20	> 1	< 0.1	< 5
N#Cc1nccc(Sc2ccc(Sc3ccnc(Nc4ccc(N5CCOCC5)cc4)n3)cc2)n1 [Compound 154, 4-(4-(2-(4-morpholinophenylao)pyrimidin-4-ylthio)phenylthio)pyrimidine-2-carbonitrile]	< 5	< 5	> 1	< 0.5	< 5
N#CCC(=O)Nc1ccc(Sc2ccnc(Nc3ccc(N4CCC(N5CCCC5)CC4)cc3)n2)cc1 [Compound 88, 2-cyano-N-(4-(2-(4-(4-(pyrrolidin-1-yl)piperidin-1-yl)phenylao)pyrimidin-4-ylthio)phenyl)acetamide]	< 5	< 20	> 1	< 0.5	< 5
